Data: PMC5540273, “Progress towards a public chemogenomic set for protein kinases and a call for contributions” (PLoS ONE, 2017)

What was measured:
Assay in all cases: KINOMEscan competition binding
CSNK1G2 = CSNK1G2 (Homo sapiens, UniProt P78368); details: read-out: %Inh CSNK1G2
ERN1 = ERN1 (Homo sapiens, UniProt O75460); details: read-out: %Inh ERN1
AURKC = target: T1, AURKC (Homo sapiens, UniProt Q9UQB9); details: read-out: %Inh AURKC
T1 sequence (Q9UQB9 1-309): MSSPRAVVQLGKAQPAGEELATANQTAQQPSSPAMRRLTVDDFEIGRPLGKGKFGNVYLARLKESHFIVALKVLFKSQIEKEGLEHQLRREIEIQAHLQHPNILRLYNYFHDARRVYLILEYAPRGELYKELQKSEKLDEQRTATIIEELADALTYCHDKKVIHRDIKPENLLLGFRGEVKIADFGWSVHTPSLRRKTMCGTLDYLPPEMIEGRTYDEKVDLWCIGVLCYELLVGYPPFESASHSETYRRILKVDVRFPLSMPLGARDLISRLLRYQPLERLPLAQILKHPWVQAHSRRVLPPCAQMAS

ANKK1 = target: T2, ANKK1 (Homo sapiens, UniProt Q8NFD2); details: read-out: %Inh ANKK1
T2 sequence (Q8NFD2 1-765): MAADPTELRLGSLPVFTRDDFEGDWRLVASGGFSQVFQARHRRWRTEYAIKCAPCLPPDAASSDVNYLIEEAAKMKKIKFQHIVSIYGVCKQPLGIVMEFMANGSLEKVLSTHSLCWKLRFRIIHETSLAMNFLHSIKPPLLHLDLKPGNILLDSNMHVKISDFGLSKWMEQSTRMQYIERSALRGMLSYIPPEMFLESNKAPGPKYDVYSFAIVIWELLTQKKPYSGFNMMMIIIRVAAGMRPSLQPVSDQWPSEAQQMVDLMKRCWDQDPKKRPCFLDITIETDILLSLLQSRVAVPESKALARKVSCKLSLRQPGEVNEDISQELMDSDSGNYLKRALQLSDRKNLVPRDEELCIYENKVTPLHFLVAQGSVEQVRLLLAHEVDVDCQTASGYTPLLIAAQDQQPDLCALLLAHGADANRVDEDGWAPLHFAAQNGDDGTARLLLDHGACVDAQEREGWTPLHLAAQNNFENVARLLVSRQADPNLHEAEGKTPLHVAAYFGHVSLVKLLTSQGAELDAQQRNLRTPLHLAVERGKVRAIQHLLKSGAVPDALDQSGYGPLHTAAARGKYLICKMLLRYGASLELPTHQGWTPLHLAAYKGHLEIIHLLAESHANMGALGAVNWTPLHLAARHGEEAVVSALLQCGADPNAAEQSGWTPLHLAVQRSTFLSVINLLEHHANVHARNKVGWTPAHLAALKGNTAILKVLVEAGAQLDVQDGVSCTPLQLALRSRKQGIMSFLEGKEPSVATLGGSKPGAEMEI

BMPR1A = BMPR1A (Homo sapiens, UniProt P36894); details: read-out: %Inh BMPR1A
Sequence of BMPR1A (P36894 24-532): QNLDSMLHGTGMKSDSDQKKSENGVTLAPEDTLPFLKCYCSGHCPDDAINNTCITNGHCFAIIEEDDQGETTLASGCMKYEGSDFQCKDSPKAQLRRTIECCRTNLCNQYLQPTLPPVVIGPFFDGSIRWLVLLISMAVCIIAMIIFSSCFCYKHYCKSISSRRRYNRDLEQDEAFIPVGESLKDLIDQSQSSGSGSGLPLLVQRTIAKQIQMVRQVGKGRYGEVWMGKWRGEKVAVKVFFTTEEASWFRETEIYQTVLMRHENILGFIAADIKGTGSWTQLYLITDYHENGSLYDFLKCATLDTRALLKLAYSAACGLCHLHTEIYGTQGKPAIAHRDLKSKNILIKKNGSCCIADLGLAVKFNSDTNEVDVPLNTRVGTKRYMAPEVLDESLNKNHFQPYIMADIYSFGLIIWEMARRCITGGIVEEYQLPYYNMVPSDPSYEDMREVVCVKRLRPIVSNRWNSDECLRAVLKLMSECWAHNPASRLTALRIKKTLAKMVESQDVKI

DAPK2 = DAPK2 (Homo sapiens, UniProt Q9UIK4); details: read-out: %Inh DAPK2
Sequence of DAPK2 (Q9UIK4 whole entry): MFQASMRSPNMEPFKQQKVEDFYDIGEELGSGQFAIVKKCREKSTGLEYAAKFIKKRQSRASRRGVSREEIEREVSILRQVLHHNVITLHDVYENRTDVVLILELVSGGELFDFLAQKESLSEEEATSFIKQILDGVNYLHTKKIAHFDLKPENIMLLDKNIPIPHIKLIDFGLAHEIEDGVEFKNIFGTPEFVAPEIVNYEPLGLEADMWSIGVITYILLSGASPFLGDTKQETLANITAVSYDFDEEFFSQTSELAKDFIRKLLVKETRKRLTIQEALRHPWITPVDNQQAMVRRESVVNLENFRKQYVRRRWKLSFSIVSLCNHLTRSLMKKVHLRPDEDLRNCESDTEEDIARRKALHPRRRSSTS

DYRK1B = DYRK1B (Homo sapiens, UniProt Q9Y463); details: read-out: %Inh DYRK1B
FLT3-autoinhibited = target: T3, FLT3-autoinhibited (Homo sapiens, UniProt P36888); details: read-out: %Inh FLT3-autoinhibited
T3 sequence (P36888 27-993): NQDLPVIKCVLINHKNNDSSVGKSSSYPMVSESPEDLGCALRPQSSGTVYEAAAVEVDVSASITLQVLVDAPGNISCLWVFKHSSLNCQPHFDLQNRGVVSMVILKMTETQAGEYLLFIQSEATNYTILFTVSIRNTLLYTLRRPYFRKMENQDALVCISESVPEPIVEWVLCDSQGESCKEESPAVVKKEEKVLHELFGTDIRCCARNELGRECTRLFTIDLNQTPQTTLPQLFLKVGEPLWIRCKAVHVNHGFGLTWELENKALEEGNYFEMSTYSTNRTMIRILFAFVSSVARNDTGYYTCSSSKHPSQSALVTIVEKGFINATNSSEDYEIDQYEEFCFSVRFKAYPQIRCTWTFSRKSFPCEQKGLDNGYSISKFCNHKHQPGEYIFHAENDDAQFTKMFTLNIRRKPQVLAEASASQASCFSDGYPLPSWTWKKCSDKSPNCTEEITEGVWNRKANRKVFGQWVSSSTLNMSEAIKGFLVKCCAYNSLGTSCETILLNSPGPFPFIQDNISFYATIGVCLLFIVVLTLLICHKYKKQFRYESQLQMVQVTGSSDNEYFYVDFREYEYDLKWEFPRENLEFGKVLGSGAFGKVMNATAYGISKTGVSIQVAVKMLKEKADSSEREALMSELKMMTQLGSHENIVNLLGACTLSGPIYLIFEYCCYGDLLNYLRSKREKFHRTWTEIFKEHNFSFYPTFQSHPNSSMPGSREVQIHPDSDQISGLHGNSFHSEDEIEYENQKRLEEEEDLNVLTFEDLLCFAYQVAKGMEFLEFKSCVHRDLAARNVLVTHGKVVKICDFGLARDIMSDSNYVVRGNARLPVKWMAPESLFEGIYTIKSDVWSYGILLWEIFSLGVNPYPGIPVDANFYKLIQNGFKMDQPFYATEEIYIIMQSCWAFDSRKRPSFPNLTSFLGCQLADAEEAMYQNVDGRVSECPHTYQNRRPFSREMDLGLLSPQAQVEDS

DAPK1 = DAPK1 (Homo sapiens, UniProt P53355); details: read-out: %Inh DAPK1
Sequence of DAPK1 (P53355 whole entry): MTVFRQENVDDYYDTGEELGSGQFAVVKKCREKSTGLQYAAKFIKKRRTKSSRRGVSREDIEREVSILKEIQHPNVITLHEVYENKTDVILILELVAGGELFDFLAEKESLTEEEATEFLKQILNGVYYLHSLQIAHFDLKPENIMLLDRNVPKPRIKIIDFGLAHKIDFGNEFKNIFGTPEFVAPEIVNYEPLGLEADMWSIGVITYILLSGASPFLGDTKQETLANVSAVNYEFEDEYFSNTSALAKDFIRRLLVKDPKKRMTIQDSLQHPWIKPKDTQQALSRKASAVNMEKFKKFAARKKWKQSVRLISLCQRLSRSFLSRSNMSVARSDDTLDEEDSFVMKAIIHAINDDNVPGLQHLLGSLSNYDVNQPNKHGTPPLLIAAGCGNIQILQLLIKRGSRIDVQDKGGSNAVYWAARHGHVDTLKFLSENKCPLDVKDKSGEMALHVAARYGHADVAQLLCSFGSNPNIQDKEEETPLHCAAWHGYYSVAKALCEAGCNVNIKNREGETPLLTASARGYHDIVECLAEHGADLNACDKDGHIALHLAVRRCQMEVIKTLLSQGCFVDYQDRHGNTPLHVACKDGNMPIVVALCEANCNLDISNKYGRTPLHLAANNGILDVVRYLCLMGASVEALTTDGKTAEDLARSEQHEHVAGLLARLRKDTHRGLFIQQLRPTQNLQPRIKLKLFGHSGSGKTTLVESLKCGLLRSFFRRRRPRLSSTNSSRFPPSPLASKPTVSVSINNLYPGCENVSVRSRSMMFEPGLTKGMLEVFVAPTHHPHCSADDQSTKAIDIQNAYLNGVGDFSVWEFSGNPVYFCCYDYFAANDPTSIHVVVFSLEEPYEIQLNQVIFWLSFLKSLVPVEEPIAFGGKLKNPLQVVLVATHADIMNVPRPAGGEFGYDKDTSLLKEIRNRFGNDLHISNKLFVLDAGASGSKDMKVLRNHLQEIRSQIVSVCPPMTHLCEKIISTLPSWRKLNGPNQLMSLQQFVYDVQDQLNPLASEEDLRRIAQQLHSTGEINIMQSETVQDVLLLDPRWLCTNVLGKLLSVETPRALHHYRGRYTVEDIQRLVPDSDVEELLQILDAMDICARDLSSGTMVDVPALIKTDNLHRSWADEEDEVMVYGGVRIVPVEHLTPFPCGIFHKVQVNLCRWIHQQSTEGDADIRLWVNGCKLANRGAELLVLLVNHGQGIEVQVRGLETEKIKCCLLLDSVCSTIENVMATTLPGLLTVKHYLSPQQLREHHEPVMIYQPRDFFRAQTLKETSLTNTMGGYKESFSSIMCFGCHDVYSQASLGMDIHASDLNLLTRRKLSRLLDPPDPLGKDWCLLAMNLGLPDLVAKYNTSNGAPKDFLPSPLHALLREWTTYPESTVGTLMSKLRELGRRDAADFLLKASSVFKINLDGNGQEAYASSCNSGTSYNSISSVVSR

ABL1-phosphorylated = ABL1-phosphorylated (Homo sapiens, UniProt P00519); details: read-out: %Inh ABL1-phosphorylated
Sequence of ABL1-phosphorylated (P00519 whole entry): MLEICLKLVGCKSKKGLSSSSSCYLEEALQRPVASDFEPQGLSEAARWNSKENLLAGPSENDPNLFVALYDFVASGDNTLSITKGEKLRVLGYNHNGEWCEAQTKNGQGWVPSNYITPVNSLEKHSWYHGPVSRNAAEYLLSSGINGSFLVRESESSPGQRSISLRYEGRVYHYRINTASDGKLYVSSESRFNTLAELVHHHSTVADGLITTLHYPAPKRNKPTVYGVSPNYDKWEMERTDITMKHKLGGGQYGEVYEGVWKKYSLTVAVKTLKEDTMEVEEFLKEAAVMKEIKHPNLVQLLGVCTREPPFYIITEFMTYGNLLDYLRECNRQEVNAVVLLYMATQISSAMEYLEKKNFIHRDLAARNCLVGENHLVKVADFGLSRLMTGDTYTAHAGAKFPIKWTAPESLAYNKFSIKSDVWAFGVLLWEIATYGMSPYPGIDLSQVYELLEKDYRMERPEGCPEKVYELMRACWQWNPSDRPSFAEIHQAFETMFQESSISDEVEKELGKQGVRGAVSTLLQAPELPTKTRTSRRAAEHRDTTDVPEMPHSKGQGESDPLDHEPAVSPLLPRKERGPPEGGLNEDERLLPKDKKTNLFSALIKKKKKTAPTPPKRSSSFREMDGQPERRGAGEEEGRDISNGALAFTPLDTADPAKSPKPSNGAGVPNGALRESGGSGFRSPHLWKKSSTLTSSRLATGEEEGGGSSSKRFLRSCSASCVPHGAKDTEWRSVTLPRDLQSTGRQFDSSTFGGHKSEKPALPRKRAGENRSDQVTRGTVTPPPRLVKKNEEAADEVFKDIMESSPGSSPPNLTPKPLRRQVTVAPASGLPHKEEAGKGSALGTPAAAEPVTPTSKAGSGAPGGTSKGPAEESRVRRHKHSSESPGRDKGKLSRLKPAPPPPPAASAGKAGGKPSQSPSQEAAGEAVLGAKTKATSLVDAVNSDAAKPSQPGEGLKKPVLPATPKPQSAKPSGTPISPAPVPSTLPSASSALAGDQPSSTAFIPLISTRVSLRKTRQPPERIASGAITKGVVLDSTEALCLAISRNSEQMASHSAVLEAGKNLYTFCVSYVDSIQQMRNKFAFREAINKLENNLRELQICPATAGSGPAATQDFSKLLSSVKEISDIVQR

Sequence of CSNK1G2 (P78368 whole entry): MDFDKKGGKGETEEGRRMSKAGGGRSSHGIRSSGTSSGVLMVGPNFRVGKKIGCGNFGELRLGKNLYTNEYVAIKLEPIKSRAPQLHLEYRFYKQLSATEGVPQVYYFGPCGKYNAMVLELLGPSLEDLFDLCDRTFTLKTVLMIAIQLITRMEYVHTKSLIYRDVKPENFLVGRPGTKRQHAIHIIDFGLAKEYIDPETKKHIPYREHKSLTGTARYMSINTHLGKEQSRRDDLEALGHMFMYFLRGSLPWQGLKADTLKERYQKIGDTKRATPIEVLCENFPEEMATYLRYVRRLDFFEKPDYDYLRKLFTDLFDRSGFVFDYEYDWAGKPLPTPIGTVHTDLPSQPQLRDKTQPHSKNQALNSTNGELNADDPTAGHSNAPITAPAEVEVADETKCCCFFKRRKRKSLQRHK
Sequence of ERN1 (O75460 19-977): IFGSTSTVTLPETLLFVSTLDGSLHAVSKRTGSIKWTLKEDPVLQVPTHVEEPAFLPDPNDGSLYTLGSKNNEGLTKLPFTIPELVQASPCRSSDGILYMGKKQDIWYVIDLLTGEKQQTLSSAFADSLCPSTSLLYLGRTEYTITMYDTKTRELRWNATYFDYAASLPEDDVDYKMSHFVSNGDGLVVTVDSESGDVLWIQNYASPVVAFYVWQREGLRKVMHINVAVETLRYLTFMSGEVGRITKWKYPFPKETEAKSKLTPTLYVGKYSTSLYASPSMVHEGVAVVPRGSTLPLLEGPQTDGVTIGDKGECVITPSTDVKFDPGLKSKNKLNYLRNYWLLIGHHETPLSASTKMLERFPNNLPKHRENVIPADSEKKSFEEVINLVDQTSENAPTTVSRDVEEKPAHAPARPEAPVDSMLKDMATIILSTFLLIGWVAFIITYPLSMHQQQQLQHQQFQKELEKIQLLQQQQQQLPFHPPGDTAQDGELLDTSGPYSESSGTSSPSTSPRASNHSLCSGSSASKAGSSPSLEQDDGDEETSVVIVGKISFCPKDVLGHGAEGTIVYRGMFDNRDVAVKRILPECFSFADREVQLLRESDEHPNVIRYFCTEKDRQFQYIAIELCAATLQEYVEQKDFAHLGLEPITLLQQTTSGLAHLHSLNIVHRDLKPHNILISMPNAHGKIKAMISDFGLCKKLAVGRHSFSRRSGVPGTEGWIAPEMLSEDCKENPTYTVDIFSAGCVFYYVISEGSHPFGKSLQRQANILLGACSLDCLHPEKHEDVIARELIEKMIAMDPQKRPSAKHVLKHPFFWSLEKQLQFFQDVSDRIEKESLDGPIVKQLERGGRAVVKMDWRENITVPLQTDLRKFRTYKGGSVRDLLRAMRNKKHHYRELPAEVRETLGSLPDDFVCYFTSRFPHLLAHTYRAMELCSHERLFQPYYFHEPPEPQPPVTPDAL

Row | Compound | inhibition at 1 µM (CSNK1G2) [%] | inhibition at 1 µM (ERN1) [%] | inhibition at 1 µM (AURKC) [%] | inhibition at 1 µM (ANKK1) [%] | inhibition at 1 µM (BMPR1A) [%] | inhibition at 1 µM (DAPK2) [%] | inhibition at 1 µM (DYRK1B) [%] | inhibition at 1 µM (FLT3-autoinhibited) [%] | inhibition at 1 µM (DAPK1) [%] | inhibition at 1 µM (ABL1-phosphorylated) [%]
1 | COc1cccc(OC)c1C(=O)Nc1cccc(-c2nn3ccccc3c2-c2ccnc(Nc3cccc(F)c3)n2)c1 [UNC10225310A] | 17 | 10 | 70 | 93.2 | 9 | 6 | 24 | 0 | 10 | 18
2 | Cc1ccc(NC(=O)Nc2cccc(C(F)(F)F)c2)cc1 [UNC10225187A] | 1 | 0 | 19 | 0 | 94.6 | 3 | 0 | 0 | 18 | 23
3 | O=c1cc(N2CCOCC2)nc2n(Cc3cccc(Cl)c3Cl)c(C3CC3)nn12 [UNC10225469A] | 5 | 0 | 0 | 0 | 15 | 12 | 0 | 0 | 26 | 20
4 | CS(=O)(=O)Cc1ccc(Nc2nccc(-c3c(-c4cccc(NC(=O)C5CCCCC5)c4)nn4ncccc34)n2)cc1 [UNC10225159A] | 5 | 33 | 49 | 0 | 0 | 9 | 0 | 25 | 0 | 15
5 | Cn1cc(-c2cnc(N)c3c(-c4ccc5c(c4)CCN5C(=O)Cc4ccccc4)csc23)cn1 [UNC10225012A] | 7 | 28 | 92.2 | 0 | 1 | 21 | 0 | 0 | 38 | 89
